Assay results: patent US5762960A (Trustees of Tufts College, priority 1996, dated 1998)
Read-outs that look alike come from different tables or passages of the source.

Assays:
dopamine uptake = conditions: in words, footnote 5 of Table 6; cited from earlier work
[1] = cited from earlier work
norepinephrine uptake = tested on: norepinephrine uptake; parameters: Amine Uptakes Blocking Activity Norepinephrine: key to the marks not given beside the values; conditions: cited from earlier work; for Amine Uptakes Blocking Activity Norepinephrine: Table 3; for Interaction and blocking activity at the norepinephrine receptor site: in words, text commenting on Table 6
[2] = tested on: canine affective aggression behavior; experiment: Case histories: treatment of household dogs exhibiting canine affective aggression
From the text: The clinical diagnosis was affective aggression behavior which was dominance aggression and/fear aggression.

dopamine receptors = conditions: in words, footnote 3 and text on Table 6; cited from earlier work
[3] = Table 6, parent compound plus active metabolite
[4] = Case 4, Cocker Spaniel, orally 25 mg daily, after two months

## CC(NC(C)(C)C)C(=O)c1cccc(Cl)c1 (stereo not drawn) [Bupropion, bupropion]
Dopamine uptake
  Dopamine uptake inhibition: Inhibits dopamine uptake
[1]; Table 6
  Half-life: 8 to 24 h
  Time to reach steady state: 1.5 to 5 days

## CN(C)CCC=C1c2ccccc2CCc2ccccc21 [Amitriptyline]
Norepinephrine uptake
  Amine Uptakes Blocking Activity Norepinephrine: ++
  Interaction and blocking activity at the norepinephrine receptor site: modest or slight
[1]; Table 3
  Half-life: 31 to 46 h
[1]; Table 3, marked ^1, footnote printed only under Table 6: parent compound plus active metabolite
  Therapeutic Plasma Level: 110 to 250 ng/mL
[1]; Table 6
  Half-life: 31 to 46 h
[1]; [3]
  Therapeutic plasma level: 110 to 250 ng/mL
[1]; in vivo
  Time to Reach Steady State: 4 to 10 days
  Time to reach steady state: 4 to 10 days

## CN(C)CCCN1c2ccccc2CCc2ccccc21 [Imipramine, imipramine]
[1]; in vivo
  Time to reach steady state: 2 to 5 days

## CNCCCC12CCC(c3ccccc31)c1ccccc12 [Maprotiline, maprotiline]
[1]; Table 6
  Time to reach steady state: 6 to 10 days
[1]; [3]
  Therapeutic plasma level: 200 to 300 ng/mL
[1]; human, in vivo
  Half-life: 21 to 25 h

## CN[C@H]1CC[C@@H](c2ccc(Cl)c(Cl)c2)c2ccccc21 [Sertraline, sertraline]
[1]; in vivo
  Time to reach steady state: 7 days

## CNCCCC1c2ccccc2C=Cc2ccccc21 [Protriptyline, protriptyline]
[1]; human, in vivo
  Half-life: 67 to 89 h
[1]; in vivo
  Therapeutic plasma level: 100 to 200 ng/mL
  Time to reach steady state: 14 to 19 days

## CN(C)CCC=C1c2ccccc2COc2ccccc21 [Doxepin, doxepin]
[1]; human, in vivo
  Half-life: 8 to 24 h
[1]; in vivo
  Time to reach steady state: 2 to 8 days

## CC(CN(C)C)CN1c2ccccc2CCc2ccccc21 (stereo not drawn) [Trimipramine, trimipramine]
[1]; Table 6
  Half-life: 7 to 30 h
[1]; in vivo
  Time to reach steady state: 2 to 6 days

## CNCCC=C1c2ccccc2CCc2ccccc21 [Nortriptyline, 3-(10,11-Dihydro-5H-dibenzo[a,d]cyclohepten-5-ylidene)-N-methyl-1-propamine]
[1]; Table 3
  Half-life: 18 to 44 h
  Time to Reach Steady State: 4 to 19 days
[1]; Table 6
  Half-life: 18 to 44 h
  Time to reach steady state: 4 to 19 days

## CNCCC(Oc1ccc(C(F)(F)F)cc1)c1ccccc1 (stereo not drawn) [Fluoxetine, fluoxetine]
[1]; in vivo
  Time to reach steady state: 2-4 weeks

## CNCCCN1c2ccccc2CCc2ccccc21 [Desipramine, desipramine]
[1]; human, in vivo
  Half-life: 12 to 24 h
[1]; in vivo
  Therapeutic plasma level: 125 to 300 ng/mL
  Time to reach steady state: 2 to 11 days

## CC(C)NCC(O)COc1cccc2ccccc12 (stereo not drawn) [inclerol]
[2]; Case 1, Australian Shepherd, 14-year old castrated male, beta-blocker for one week
  Effect on aggressive behavior: only increased his aggressive behavior

## Clc1ccc2c(c1)C(N1CCNCC1)=Nc1ccccc1O2 [Amoxapine, amoxapine]
Dopamine receptors
  Dopamine receptor blockade / interaction: blocks dopamine receptors
[1]; human, in vivo
  Half-life: 8 h
[1]; in vivo
  Therapeutic plasma level: 200 to 500 ng/mL
  Time to reach steady state: 2 to 7 days

## CN(C)CCCN1c2ccccc2CCc2ccc(Cl)cc21 [Clomipramine, 3-chloro-10,11-dihydro-N,N-dimethyl-5H-benzo-[b,f]azepine-5-propamine]
Norepinephrine uptake
  Amine Uptakes Blocking Activity Norepinephrine: ++
  Interaction and blocking activity at the norepinephrine receptor site: modest or slight
[1]; in vivo
  Therapeutic Plasma Level: 80 to 100 ng/mL
  Therapeutic plasma level: 80 to 100 ng/mL
  Time to Reach Steady State: 7 to 14 days
  Time to reach steady state: 7 to 14 days
[2]; Case 1, Australian Shepherd, 25 mg daily, after one week's treatment
  Owner-noted change in aggressive behavior: slight improvement
[2]; Case 1, Australian Shepherd, 25 mg daily, after several weeks' treatment
  Improvement in aggression behavior: maintained
[2]; Case 1, Australian Shepherd, 25 mg daily, three weeks after start
  Owner-rated improvement of behavior: 50-75%
[2]; Case 2, Lhasa Apso, dominance and territorial aggression, approx. 1 mg/kg twice a day for one week then approx. […] twice a day, after two weeks
  Owner rating of behavior: slightly improved
[2]; Case 2, Lhasa Apso, through the eight weeks following termination of administration
  Persistence of improvement in aggressive behavior: sustained
[2]; Case 3, German Shepherd, fear and territorial aggression, once a day slightly less than 1 mg/kg, after two weeks
  Improvement in behavior: Moderate improvement
[2]; Case 3, German Shepherd, once a day slightly less than 1 mg/kg, eight weeks after initiation
  Improvement in behavior: moderate improvement
[2]; Case 4, Cocker Spaniel, dominance/fear aggression, orally 25 mg daily, after one week
  Owner-rated improvement in behavior: 25-50%
[2]; Case 4, Cocker Spaniel, orally 25 mg daily, after one month
  Owner-reported behavior: much calmer on the street
[2]; [4]
  Improvement in behavior: 50-75%
  Owner-reported behavior: essentially non-aggressive
[2]; Case 4, Cocker Spaniel, orally 25 mg daily, after two weeks
  Owner-reported behavior: fine in the house
[2]; conclusion from the four case histories, no behavior modification therapy
  Overall effectiveness for treatment of interspecific affective aggression in dogs: very effective

## Fc1ccc([C@@H]2CCNC[C@H]2COc2ccc3c(c2)OCO3)cc1 [Paroxetine, paroxetine]
[1]; Table 6
  Half-life: 10 to 24 h
[1]; in vivo
  Time to reach steady state: 7 to 14 days
